From patent publication US20200171065A1, “METHOD FOR TREATING LIVER DISEASE WITH KINSENOSIDE” (HUAZHONG UNIVERSITY OF SCIENCE AND TECHNOLOGY, priority 2017, published 2020) come the findings set out here.

The assay has as its system SD mice with ANIT induced intrahepatic cholestasis. Kind of assay: ANIT-induced intrahepatic cholestasis. The assay is classed as in vivo. On the procedure:
42 SPF SD mice were purchased and raised in the SPF experimental animal center of Tongji Medical College of Huazhong University of Science and Technology. They were provided with standard diet and drinking water. The room temperature was controlled at 23±2° C. After 3 days of adaptive feeding, they were given drugs by intragastric administration. 42 SD mice were randomly divided into 7 groups (normal control group, ANIT model group, KD low-dose group, KD medium dose group, KD high-dose group, UDCA positive control group and KD negative control group), 6 mice in each group were weighed and recorded daily. […] Thereafter, the drug was given again every 24 hours for 3 times, and the animals in each group were fasted (water was provided) after the third time. 72 hours later, the animals were killed and samples were collected.

On to `C[C@H](CCC(=O)O)[C@H]1CC[C@H]2[C@@H]3[C@@H](O)C[C@@H]4C[C@H](O)CC[C@]4(C)[C@H]3CC[C@]12C` [UDCA, reference compound], for which, under “KD 50, 100, 200 mg/kg or UDCA 80 mg/kg by gavage”, the plasma color result was “turned light yellow similar to that of the normal control group”. In addition, under “different doses of KD, UDCA treatment group”, the “hepatic sinusoid and inflammatory cell infiltration (HE staining)” value was “normal hepatic sinusoid, obvious hepatocyte gap, and obvious recovery of inflammatory cell infiltration”. Also, the “plasma ALT, AST, AKP, TBIL and DBIL” value (low, medium and high doses of KD, 80 mg/kg UDCA) was “can significantly reduce ALT, AST, AKP, TBIL and DBIL”. Also, the “plasma TBA” value (medium and high doses of KD, 80 mg/kg UDCA) was “can significantly reduce TBA”.
